Measurements: PMC6278366, “Synthesis and Evaluation of Anticancer Activities of Novel C-28 Guanidine-Functionalized Triterpene Acid Derivatives” (Molecules, 2018)
Counter-ions that a name gives are not always drawn.

What was measured:
[1] = system: HEK293 (embryonic kidney) cells; assay: Cytotoxicity assay (7-AAD viability, flow cytometry), HEK293; format: cell-based, human; conditions: Homo sapiens, HEK293, mean ± SE, at least three experiments in duplicate; viable cells
Outline: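 Adherent HeLa, HEK293 and normal human fibroblasts (5 × 10⁴/well, DMEM with 10% FBS, 37 °C, 5% CO2) were treated with compounds at 1, 5, 10, 15, 30 and 60 μM. Viability was read as 7-AAD exclusion by flow cytometry after 15 min staining.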

[2] = system: U937 (histiocytic lymphoma) cells; assay: Cytotoxicity assay (7-AAD viability, flow cytometry), U937; format: cell-based, human; conditions: Homo sapiens, U-937, mean ± SE, at least three experiments in duplicate; viable cells; read-out: IC50 U937
Outline: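 Suspension lines in RPMI 1640 with 10% FBS at 37 °C, 5% CO2, treated with compounds at 1, 5, 10, 15, 30 and 60 μM. Live/dead status by 7-AAD staining (15 min, room temperature, dark) read on flow cytometer, 488 nm excitation, 675/30 nm emission.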

Row | Structure (SMILES) | IC50 [1] | IC50 [2]
1 | CC(=O)O[C@H]1CC[C@@]2(C)C(CC[C@]3(C)C2CCC2C4C(C(C)C)CC[C@]4(C(=O)OCC(N)(CO)CO)CC[C@]23C)C1(C)C (stereo partly drawn) [Compound 15, 3β-[2-Amino-3-hydroxy-2-(hydroxymethyl)propyl]-3-O-acetyl-lupane-28-oate] | 17 ± 0.25 µM | 6.6 ± 0.23 µM
2 | CC(=O)O[C@H]1CC[C@@]2(C)C(CC[C@]3(C)C2CCC2C4C(C(C)C)CC[C@]4(C(=O)OCC(CO)(CO)NC(=N)N)CC[C@]23C)C1(C)C (stereo partly drawn) [Compound 15c, 3β-[2-Guanidine-3-hydroxy-2-(hydroxymethyl)propyl]-3-O-acetyl-lupane-28-oate hydrochloride] | 16 ± 0.27 µM | 15 ± 0.23 µM
